From US8354401B2, “Oxazolidinone amide aromatic compounds for supressing MMP-9 production” (Mitsubishi Tanabe Pharma Corporation, priority 2008, dated 2013)

How the values were obtained:
[1] = tested on: proMMP-9 production by human TNFα stimulated THP-1 cell; test: Action of human TNFα stimulated THP-1 cell on proMMP-9 production (ELISA of culture supernatant); format: cell-based; details: THP-1 cells, human TNFα 10 ng/mL, 24 hr; IC50 from 10, 100 and 1,000 nmol/L; read-out: Experimental Example 1 proMMP-9 production suppression (IC50)
Description: Action of Human TNFα Stimulated THP-1 Cell on proMMP-9 Production
(§1) THP-1 cell (human monocytic leukemia cell line) was adjusted to 1×10^7 cells/mL in a culture medium (10% fetal bovine serum/RPMI1640 medium), and dispensed to a 96 well multiplate. This was equilibrated under the conditions of 37° C./5% CO2, and a culture medium containing human TNFα (final concentration 10 ng/mL) and a test compound was added thereto. After incubation under the conditions of 37° C./5% CO2 for 24 hr, the culture medium was centrifugated and the culture supernatant was collected, which was subjected to the following measurement.
Quantification of proMMP-9 in Culture Supernatant
The proMMP-9 concentration of the collected culture supernatant was quantified using a commercially available measurement reagent (manufactured by GE Healthcare, MMP-9, Human, Biotrak ELISA System).
Calculation of proMMP-9 Suppression Rate
The proMMP-9 suppression rate of the test compound was calculated from the following formula: % suppression=100−((Test−Min)/(Max−Min)×100) wherein Max is proMMP-9 concentration of culture supernatant induced by stimulation with human TNFα, without addition of a test compound (added with solvent alone) • Min is proMMP-9 concentration of culture supernatant without addition of a test compound (added with solvent alone) and without stimulation with human TNFα, and • Test is proMMP-9 concentration of culture supernatant induced by stimulation with human TNFα when a test compound is added.
Furthermore, the concentration of the test compound necessary for suppressing proMMP-9 production by human TNFα stimulated THP-1 cell by 50% (IC50 value) was calculated from 3 points of proMMP-9 suppression rate at test compound concentrations of 10, 100 and 1,000 nmol/L.

[2] = tested on: proMMP-2 production by THP-1 cell; test: Action of THP-1 cell on hemostatic type proMMP-2 production (ELISA of culture supernatant); format: cell-based, human; details: THP-1 cells, 24 hr
Description: Action of THP-1 Cell on Hemostatic Type proMMP-2 Production
as §1, with “containing” for “containing human TNFα (final concentration 10 ng/mL) and”
Quantification of proMMP-2 in Culture Supernatant
The proMMP-2 concentration of the collected culture supernatant was quantified using a commercially available measurement reagent (manufactured by GE Healthcare, MMP-2, Human, Biotrak ELISA System).
Calculation of proMMP-2 Suppression Rate
The proMMP-2 suppression rate of the test compound was calculated from the following formula: % suppress=100−((Test/Cont)×100). wherein Cont is proMMP-2 concentration of culture supernatant without addition of a test compound (added with solvent alone) and Test is proMMP-2 concentration of culture supernatant with addition of a test compound.

[3] = tested on: rat monoiodoacetic acid-induced osteoarthritis model; test: Suppressive action on articular joints injury of rat monoiodoacetic acid-induced osteoarthritis model; format: in vivo; details: LEW rat
Description: Suppressive Action on Articular Joints Injury of Rat Monoiodoacetic Acid-Induced Osteoarthritis Model
Monoiodoacetic acid solution (0.3 mg/25 μL) was injected into the right hindpaw knee joint cavity of anesthetized rats (LEW, male, 7-week-old). […] On day 7, right hindpaw knee joint was taken from euthanized rats, and fixed with 10% neutral formalin solution. A pathology specimen of knee joint was prepared, stained with Hematoxylin Eosin and Safranine O, and the state of joint cartilage injury was scored under microscopic observation. For articular joint injury scores, changes in each pathological finding in medial condyle of femur and medial condyle of tibia (cartilage surface tuberosity, erosion/ulcer/fibrillation, chondrocyte disorganization/disappearance/hypertrophy, reduction of Safranine staining) were divided into mild, moderate and severe according to the method of Kobayashi et al. (Kobayashi K et al. J. Vet. Med. Sci. 65, 1195 1199 2003), and indicated in the scores of 1, 2 and 3 and totaled. Furthermore, an average of the score of medial condyle of femur and that of medial condyle of tibia was determined and used as an articular joint injury score.

[4] = tested on: rat adjuvant induced arthritis model; test: Suppressive action on hindpaw edema of rat adjuvant induced arthritis model; format: in vivo; details: LEW rat, difference of hindpaw volume day 15 vs day 21, in mL (unit assumed)
Description: Suppressive Action on Hindpaw Edema of Rat Adjuvant Induced Arthritis Model
Anesthetized rats (LEW, male, 6-week-old) were immunized with M. Butyricum (5 mg/mL) at a dose of 0.1 mL/body by subcutaneous administration from the tail root. […] The test compound was orally administered once a day from immediately after allocation on day 15 to day 20 at doses of 3 and 30 mg/kg, and the hindpaw volume was measured again on day 21. The amount of hindpaw edema was the difference in the amount between hindpaw volume on day 15 and that on day 21.

[5] = tested on: rat dinitrobenzene-induced colitis model; test: Suppressive action on large intestine weight increase of rat dinitrobenzene-induced colitis model; format: in vivo; details: Wistar rat, 30 mg/kg oral once a day to day 7, measured day 8
Description: Suppressive Action on Large Intestine Weight Increase of Rat Dinitrobenzene-Induced Colitis Model
A dinitrobenzene solution (30 mg/0.1 mL) was injected into the large intestine of anesthetized rats (Wistar, male, 6-week-old). A test compound was orally administered once a day from the previous day of the dinitrobenzene injection to day 7 at a dose of 30 mg/kg. On day 8, the large intestine was isolated from euthanized rats, and the wet weight thereof was measured. The large intestine weight was amended to the weight per 100 g body weight of the rats on day 8.

[6] = 3 mg/kg oral once a day to day 6, scored day 7
[7] = 10 mg/kg oral once a day to day 6, scored day 7

| SMILES | IC50 [1] | Experimental Example 2 proMMP-2 production suppression (% suppression, 10 μM) [2] | also measured |
| --- | --- | --- | --- |
| Cc1ccc(N2CCN(C(=O)c3c(F)cc(N4CCOC4=O)cc3F)CC2)c(C)c1 [Example 1, 3-{4-[4-(2,4-dimethylphenyl)piperazine-1-carbonyl]-3,5-difluorophenyl}oxazolidin-2-one] | 44 nM | 17.4% | – |
| Cc1ccc(N2CCN(C(=O)c3ccc(N4CCOC4=O)cc3C)CC2)c(C)c1 [Example 6, 3-{4-[4-(2,4-dimethylphenyl)piperazine-1-carbonyl]-3-methylphenyl}oxazolidin-2-one] | 59 nM | 12.6% | – |
| Cc1ccc(N2CCN(C(=O)c3ccc(N4CCOC4=O)cc3)CC2)c(C)c1 [Example 8, 3-{4-[4-(2,4-dimethylphenyl)piperazine-1-carbonyl]phenyl}oxazolidin-2-one] | 48 nM | 11.6% | articular joint injury score of compound administration group [3, 6]: 4.4 ± 0.5; hindpaw edema volume ([4]; 3 mg/kg oral once a day day 15 to day 20): 0.27 ± 0.17; hindpaw edema volume ([4]; 30 mg/kg oral once a day day 15 to day 20): 0.20 ± 0.18; large intestine weight (g/100 g body weight) [5]: 0.457 ± 0.031 g/100 g body weight |
| Cc1ccc(N2CCN(C(=O)c3ccc(N4CCOC4=O)cc3S(C)(=O)=O)CC2)c(C)c1 [Example 11, 3-{4-[4-(2,4-dimethylphenyl)piperazine-1-carbonyl]-3-methanesulfonylphenyl}oxazolidin-2-one] | 40 nM | 12.4% | – |
| Cc1ccc(N2CCN(C(=O)c3ccc(N4C(=O)OC[C@H]4CO)cc3S(C)(=O)=O)CC2)c(C)c1 [Example 19, (R)-3-{4-[4-(2,4-dimethylphenyl)piperazine-1-carbonyl]-3-methanesulfonylphenyl}-4-hydroxymethyloxazolidin-2-one] | 11 nM | 22.5% | – |
| Cc1ccc(C(=O)C2CCN(C(=O)c3ccc(N4CCOC4=O)nc3)CC2)cc1 [Example 42, 3-{5-[4-(4-methylbenzoyl)piperidine-1-carbonyl]pyridin-2-yl}oxazolidin-2-one] | – | – | articular joint injury score of compound administration group [3, 7]: 3.8 ± 0.7 |
| Cc1cnc(N2CCN(C(=O)c3ccc(N4C(=O)OC[C@H]4C)cc3S(C)(=O)=O)CC2)c(C)c1 [Example 81, (R)-3-{4-[4-(3,5-dimethylpyridin-2-yl)piperazine-1-carbonyl]-3-methanesulfonylphenyl}-4-methyloxazolidin-2-one] | – | – | articular joint injury score of compound administration group [3, 7]: 4.4 ± 0.4 |
| Cc1cnc(N2CCN(C(=O)c3ccc(N4C(=O)OC[C@H]4C)nc3)CC2)c(C)c1.Cl.Cl [Example 109, (R)-3-{5-[4-(3,5-dimethylpyridin-2-yl)piperazine-1-carbonyl]pyridin-2-yl}-4-methyloxazolidin-2-one 2hydrochloride] | – | – | articular joint injury score of compound administration group [3, 6]: 4.1 ± 0.4 |
